# Assay results taken from ChEMBL document CHEMBL5465560, “Selectivity Literature for EUbOPEN Chemogenomic Library” (2024).
# Assays:
# [1] = molecular target: Receptor tyrosine-protein kinase erbB-4 (Homo sapiens, UniProt Q15303); assay: Selectivity interaction (KinomeScan (DiscoverX)) EUB0000229b ERBB4; conditions: at 10 µM
# [2] = molecular target: Tyrosine-protein kinase JAK1 (Homo sapiens, UniProt P23458); assay: Selectivity interaction (KinomeScan (DiscoverX)) EUB0001079a JAK1; conditions: at 1 µM
# [3] = molecular target: Serine/threonine-protein kinase WNK2 (Homo sapiens) (UniProt Q9Y3S1); assay: Selectivity interaction (LanthaScreen Eu Kinase Binding Assay) EUB0001632a WNK2; conditions: at 10 µM
# [4] = molecular target: T1, Serine/threonine-protein kinase Nek3 (Homo sapiens) (UniProt P51956); assay: Selectivity interaction (KinomeScan (DiscoverX)) EUB0000666a NEK3; conditions: at 10 µM
# T1 sequence (whole entry): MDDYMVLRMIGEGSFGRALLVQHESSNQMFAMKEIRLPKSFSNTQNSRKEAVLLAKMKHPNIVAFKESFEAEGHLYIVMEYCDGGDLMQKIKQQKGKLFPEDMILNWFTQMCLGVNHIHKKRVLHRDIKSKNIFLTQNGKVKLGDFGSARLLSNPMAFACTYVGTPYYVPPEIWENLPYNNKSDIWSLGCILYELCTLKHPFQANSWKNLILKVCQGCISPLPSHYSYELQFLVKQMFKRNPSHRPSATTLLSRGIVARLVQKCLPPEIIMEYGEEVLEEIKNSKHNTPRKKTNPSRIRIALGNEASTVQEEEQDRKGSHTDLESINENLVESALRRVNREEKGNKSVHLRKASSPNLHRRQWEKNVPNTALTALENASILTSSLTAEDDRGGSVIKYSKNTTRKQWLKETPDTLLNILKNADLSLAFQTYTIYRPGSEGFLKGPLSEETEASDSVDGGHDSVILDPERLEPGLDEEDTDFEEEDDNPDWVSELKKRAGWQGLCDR
# [5] = molecular target: Transcription initiation factor TFIID subunit 1-like (Homo sapiens) (UniProt Q8IZX4); assay: Selectivity interaction (Bromodomain panel (DSF asssay)) EUB0000270b TAF1L
# [6] = molecular target: T2, Tyrosine-protein kinase Mer (Homo sapiens) (UniProt Q12866); conditions: at 10 µM
# T2 sequence (whole entry): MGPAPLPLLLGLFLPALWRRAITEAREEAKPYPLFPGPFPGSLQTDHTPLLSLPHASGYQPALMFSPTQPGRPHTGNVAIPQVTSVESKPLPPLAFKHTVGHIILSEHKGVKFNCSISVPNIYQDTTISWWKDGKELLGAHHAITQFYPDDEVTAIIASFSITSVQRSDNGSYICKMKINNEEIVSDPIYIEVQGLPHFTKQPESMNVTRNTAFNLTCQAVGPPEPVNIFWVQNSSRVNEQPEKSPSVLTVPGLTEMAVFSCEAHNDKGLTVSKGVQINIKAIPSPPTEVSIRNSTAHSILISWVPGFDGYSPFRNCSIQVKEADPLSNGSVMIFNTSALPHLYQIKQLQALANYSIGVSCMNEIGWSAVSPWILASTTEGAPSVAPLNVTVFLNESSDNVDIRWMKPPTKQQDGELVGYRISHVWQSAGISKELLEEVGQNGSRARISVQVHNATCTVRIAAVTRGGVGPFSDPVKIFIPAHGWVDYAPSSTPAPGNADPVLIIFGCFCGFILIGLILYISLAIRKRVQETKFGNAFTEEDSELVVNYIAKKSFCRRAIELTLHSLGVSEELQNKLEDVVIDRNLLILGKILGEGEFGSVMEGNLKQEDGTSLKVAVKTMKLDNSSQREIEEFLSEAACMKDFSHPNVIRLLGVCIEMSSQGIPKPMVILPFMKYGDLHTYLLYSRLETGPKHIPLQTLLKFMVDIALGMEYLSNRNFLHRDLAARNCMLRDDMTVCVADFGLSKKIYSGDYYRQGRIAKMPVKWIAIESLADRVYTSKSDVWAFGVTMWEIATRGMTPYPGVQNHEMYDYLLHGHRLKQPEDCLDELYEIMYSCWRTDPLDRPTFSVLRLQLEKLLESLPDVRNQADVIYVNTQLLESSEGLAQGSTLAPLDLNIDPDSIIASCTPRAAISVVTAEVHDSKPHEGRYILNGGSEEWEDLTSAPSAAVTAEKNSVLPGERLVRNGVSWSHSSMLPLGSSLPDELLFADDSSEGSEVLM
# [7] = molecular target: High affinity nerve growth factor receptor (Homo sapiens, UniProt P04629); conditions: at 10 µM
# [8] = molecular target: Serine/threonine-protein kinase MARK1 (Homo sapiens) (UniProt Q9P0L2); conditions: at 10 µM
# [9] = molecular target: Casein kinase II subunit alpha (Homo sapiens, UniProt P68400); assay: Selectivity interaction (Upstate Kinase Profiler service (Millipore)) EUB0000056c CSNK2A1; conditions: at 1 µM
# [10] = molecular target: Wee1-like protein kinase (Homo sapiens) (UniProt P30291); assay: Selectivity interaction (ProQinase) EUB0000171b WEE1
# [11] = molecular target: Death-associated protein kinase 1 (Homo sapiens, UniProt P53355); assay: Selectivity interaction (ProQinase) EUB0000171b DAPK1
# [12] = molecular target: Cyclin-dependent kinase 5 (Homo sapiens, UniProt Q00535); assay: Selectivity interaction (KinomeScan (DiscoverX)) EUB0000618a CDK5; conditions: at 10 µM
# [13] = molecular target: Serine/threonine-protein kinase MARK2 (Homo sapiens) (UniProt Q7KZI7); assay: Selectivity interaction (Kinase panel (Invitrogen)) EUB0000639a MARK2; conditions: at 200 nM
# [14] = molecular target: Casein kinase II subunit alpha' (Homo sapiens) (UniProt P19784); assay: Selectivity interaction (ActivX KiNativ screen (kinase selectivity in THP-1 cell lysates)) EUB0000639a CSNK2A2; format: subcellular; conditions: lysate
# [15] = molecular target: Ephrin type-A receptor 7 (Homo sapiens) (UniProt Q15375); conditions: at 10 µM
# [16] = molecular target: Mitogen-activated protein kinase 1 (Homo sapiens, UniProt P28482); assay: Selectivity interaction (Ambit KINOMEscan and KiNATiv profiling in Jurkat cells) EUB0000090b MAPK1; format: cell-based; conditions: at 1 µM
# Mitogen-activated protein kinase 1, sequence (P28482 whole entry): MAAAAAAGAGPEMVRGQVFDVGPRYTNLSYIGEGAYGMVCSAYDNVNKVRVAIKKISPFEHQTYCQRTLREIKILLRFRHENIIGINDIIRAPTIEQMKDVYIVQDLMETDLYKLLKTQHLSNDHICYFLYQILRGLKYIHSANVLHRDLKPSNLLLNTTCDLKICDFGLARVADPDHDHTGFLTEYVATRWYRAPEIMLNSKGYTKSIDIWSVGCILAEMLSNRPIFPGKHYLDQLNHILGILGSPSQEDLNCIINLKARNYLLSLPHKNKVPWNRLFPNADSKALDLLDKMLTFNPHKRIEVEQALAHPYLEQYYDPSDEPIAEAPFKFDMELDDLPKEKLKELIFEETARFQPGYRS
# Casein kinase II subunit alpha' (Homo sapiens), sequence (P19784 whole entry, looked up): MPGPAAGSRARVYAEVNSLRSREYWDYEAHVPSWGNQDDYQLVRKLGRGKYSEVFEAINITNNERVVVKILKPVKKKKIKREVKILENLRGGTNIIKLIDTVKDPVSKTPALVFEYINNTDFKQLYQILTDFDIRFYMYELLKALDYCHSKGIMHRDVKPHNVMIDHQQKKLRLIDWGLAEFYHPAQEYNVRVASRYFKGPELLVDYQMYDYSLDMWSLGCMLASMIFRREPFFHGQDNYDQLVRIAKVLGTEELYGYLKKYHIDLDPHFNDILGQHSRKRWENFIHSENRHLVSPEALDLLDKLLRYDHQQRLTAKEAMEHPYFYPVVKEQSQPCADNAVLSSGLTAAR
# Wee1-like protein kinase (Homo sapiens), sequence (P30291 whole entry, looked up): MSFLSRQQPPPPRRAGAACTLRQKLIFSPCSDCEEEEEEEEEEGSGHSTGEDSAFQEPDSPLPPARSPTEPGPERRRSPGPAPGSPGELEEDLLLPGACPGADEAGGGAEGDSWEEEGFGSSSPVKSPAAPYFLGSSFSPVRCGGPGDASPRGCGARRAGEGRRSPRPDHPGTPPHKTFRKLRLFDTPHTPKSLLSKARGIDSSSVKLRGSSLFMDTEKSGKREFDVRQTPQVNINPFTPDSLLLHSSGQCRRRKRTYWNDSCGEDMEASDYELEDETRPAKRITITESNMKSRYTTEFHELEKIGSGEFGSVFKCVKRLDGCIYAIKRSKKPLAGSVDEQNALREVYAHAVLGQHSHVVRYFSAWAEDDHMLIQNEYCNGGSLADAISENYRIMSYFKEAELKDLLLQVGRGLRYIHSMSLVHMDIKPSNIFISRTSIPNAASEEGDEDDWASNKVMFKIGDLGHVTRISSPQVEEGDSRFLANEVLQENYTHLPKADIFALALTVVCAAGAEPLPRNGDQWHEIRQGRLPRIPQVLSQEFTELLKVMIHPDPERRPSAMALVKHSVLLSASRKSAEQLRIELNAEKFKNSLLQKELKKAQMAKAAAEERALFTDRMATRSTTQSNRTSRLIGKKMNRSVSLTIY
# Death-associated protein kinase 1, sequence (P53355 whole entry, looked up): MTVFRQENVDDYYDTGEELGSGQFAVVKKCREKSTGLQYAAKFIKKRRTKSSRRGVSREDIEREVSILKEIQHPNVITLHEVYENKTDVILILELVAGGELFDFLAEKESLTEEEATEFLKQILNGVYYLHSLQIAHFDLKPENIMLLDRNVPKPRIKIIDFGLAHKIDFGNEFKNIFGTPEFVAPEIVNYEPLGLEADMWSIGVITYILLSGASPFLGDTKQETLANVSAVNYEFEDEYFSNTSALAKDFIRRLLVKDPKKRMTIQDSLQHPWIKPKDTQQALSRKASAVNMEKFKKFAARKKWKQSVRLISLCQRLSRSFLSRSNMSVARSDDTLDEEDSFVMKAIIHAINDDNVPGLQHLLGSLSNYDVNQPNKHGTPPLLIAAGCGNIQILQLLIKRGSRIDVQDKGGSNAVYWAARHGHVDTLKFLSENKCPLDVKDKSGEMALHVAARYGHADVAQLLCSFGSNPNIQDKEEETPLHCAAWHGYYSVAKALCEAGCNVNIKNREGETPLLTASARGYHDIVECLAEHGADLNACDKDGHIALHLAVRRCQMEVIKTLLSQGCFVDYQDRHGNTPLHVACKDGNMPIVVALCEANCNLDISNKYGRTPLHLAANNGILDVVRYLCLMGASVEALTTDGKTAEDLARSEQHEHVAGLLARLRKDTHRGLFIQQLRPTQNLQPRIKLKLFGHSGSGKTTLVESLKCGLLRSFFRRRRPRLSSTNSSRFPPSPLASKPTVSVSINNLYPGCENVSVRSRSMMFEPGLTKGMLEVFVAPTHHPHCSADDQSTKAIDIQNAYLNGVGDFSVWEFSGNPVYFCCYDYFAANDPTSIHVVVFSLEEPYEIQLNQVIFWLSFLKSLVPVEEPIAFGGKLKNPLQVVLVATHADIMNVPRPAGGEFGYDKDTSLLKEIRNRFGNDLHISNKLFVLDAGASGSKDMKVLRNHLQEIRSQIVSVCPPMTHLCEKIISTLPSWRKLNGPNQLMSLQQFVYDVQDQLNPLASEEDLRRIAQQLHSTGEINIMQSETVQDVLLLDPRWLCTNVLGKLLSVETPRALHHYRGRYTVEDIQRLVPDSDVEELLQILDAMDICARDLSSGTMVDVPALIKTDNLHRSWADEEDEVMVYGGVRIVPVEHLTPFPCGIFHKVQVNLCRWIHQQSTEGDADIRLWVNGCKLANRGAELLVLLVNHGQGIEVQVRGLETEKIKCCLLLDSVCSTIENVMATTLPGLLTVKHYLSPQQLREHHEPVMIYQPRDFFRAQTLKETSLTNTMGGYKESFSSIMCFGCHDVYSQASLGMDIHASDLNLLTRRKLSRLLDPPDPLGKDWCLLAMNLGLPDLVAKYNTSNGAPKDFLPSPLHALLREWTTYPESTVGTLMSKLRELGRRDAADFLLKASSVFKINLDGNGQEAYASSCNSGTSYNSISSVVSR
# Transcription initiation factor TFIID subunit 1-like (Homo sapiens), sequence (Q8IZX4 whole entry): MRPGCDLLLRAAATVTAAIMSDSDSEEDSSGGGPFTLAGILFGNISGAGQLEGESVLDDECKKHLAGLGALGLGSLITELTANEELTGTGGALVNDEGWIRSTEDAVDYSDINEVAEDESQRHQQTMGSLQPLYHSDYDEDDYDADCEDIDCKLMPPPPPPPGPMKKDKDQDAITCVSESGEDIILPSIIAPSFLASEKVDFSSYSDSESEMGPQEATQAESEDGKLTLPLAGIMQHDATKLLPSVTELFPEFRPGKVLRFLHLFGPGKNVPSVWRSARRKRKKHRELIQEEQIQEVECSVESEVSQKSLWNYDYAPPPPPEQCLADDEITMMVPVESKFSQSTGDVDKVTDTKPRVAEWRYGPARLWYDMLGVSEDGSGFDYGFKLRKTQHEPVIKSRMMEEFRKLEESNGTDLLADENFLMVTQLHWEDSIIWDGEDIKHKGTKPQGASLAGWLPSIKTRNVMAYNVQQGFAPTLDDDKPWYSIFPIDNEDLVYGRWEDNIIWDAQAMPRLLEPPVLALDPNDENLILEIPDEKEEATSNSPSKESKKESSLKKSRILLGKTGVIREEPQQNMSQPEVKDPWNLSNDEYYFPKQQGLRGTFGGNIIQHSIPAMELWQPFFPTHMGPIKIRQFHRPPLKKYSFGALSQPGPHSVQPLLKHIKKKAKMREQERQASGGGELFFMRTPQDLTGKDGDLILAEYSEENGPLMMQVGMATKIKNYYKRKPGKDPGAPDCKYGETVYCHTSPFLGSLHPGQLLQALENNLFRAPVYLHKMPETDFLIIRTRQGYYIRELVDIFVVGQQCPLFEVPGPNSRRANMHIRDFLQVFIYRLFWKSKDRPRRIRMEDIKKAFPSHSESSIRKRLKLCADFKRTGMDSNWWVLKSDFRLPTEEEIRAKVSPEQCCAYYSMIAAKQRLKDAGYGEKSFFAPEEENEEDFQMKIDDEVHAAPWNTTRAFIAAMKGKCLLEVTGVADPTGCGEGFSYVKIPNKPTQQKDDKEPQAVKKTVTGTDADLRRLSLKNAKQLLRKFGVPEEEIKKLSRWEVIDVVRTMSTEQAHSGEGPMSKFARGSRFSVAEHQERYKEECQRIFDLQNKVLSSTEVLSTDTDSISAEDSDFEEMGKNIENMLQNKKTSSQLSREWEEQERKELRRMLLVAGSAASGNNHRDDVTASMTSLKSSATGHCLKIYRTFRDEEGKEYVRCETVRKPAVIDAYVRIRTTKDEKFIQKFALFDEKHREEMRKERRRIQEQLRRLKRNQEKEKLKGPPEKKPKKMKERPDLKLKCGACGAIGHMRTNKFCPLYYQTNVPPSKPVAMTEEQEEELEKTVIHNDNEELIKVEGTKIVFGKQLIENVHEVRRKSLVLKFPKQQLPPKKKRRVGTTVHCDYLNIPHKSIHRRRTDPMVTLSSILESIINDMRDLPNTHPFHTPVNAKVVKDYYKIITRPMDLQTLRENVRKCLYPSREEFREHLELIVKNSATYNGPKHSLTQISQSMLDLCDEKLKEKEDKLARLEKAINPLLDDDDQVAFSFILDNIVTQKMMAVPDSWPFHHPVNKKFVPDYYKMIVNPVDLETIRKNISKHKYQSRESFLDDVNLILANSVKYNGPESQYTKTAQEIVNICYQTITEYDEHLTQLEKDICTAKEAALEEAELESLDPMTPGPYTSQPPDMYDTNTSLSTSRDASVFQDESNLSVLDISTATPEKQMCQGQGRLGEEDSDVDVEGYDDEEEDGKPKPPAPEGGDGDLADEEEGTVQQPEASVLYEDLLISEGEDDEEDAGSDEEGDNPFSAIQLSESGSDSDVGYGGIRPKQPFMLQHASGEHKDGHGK
# Cyclin-dependent kinase 5, sequence (Q00535 whole entry, looked up): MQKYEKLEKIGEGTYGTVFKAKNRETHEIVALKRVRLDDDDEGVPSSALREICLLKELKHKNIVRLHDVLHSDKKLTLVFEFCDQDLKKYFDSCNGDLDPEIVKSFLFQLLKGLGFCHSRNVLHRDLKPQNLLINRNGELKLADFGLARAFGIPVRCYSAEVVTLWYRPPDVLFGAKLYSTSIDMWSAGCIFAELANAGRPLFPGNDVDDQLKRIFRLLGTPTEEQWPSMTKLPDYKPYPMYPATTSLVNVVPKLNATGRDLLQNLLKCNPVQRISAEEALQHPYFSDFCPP
structure (smiles),measurement,setting,value
COc1cc(N(C)c2ccnc3ccc(C(F)(F)F)cc23)cc(OC)c1OC,% binding,[1],81%
Nc1cnc(N2CCc3cc(S(=O)(=O)Nc4c(F)cc(Cl)cc4F)cc(N4CCCC4=O)c32)nc1 [TP-020n],% of control,[2],93%
Cn1cc(-n2cnc3c(NCc4nc5cc(Cl)c(Cl)cc5[nH]4)nc(N4CCOCC4)nc32)cn1,% of inhibition,[3],-13.6%
O=C(NOC[C@H](O)CO)c1ccc(F)c(F)c1Nc1ccc(I)cc1F,% of control,[4],100%
Cc1cc(CN)cc(C)c1-c1ncn(C)c1-c1cncn1C,dTM,[5],-1.56 K
Cc1cc([C@@H](C)Nc2ccccc2C(=O)O)c2nc(N3CCOCC3)cc(=O)n2c1 [AZD-6482],% of control,[6],100%
same,% of control,[7],88%
same,% of control,[8],100%
Cc1ccc(-c2ccc3c(ccc4sc5c(c43)NC[C@@H](C)NC5=O)n2)cn1,% of inhibition,[9],15%
C=CC(=O)Nc1cccc(C(=O)Nc2ccc(Nc3cc(-c4[nH]c(SC)nc4C)ccn3)cc2)c1,% of control,[10]; at 1 µM,73%
same,% of control,[10]; at 5 µM,79%
same,% of control,[11]; at 1 µM,100%
same,% of control,[11]; at 5 µM,94%
O[C@H]1CC[C@H](Nc2ncc3nc(Nc4c(F)cc(F)cc4F)n([C@H]4CCOC4)c3n2)CC1,% of control,[12],100%
CC[C@@H]1[C@H](F)C(=O)N[C@@H]1COc1nccc2cc(C(N)=O)c(OC)cc12 [ZIMLOVISERTIB],% of inhibition,[13],5.09%
same,% of inhibition,[14]; at 0.01 µM,-4.5%
same,% of inhibition,[14]; at 0.04 µM,-21.2%
same,% of inhibition,[14]; at 0.2 µM,-18%
same,% of inhibition,[14]; at 1 µM,-3.6%
same,% of inhibition,[14]; at 5 µM,-2.6%
CCN(CC)CCCCNc1ncc2cc(-c3cc(OC)cc(OC)c3)c(NC(=O)NC(C)(C)C)nc2n1,% of control,[15],100%
CN(C)C/C=C/C(=O)Nc1ccc(C(=O)N2CCCC(Nc3ncc(Cl)c(-c4c[nH]c5ccccc45)n3)C2)cc1 (configuration not stated),% of control,[16],85%
